Values of other authors in patent publication US20180256731A1, “NOVEL INSULIN ANALOG AND USE THEREOF” (HANMI PHARM. CO., LTD, priority 2013, published 2018).

Conditions: commercially available long-acting insulin

insulin glargine
lasting for (duration): 20 to 22 h

insulin detemir
lasting for (duration): 18 to 22 h
